Data: patent US20110046147A1, “17BETA-HYDROXYSTEROID DEHYDROGENASE TYPE 1 INHIBITORS FOR THE TREATMENT OF HORMONE-RELATED DISEASES” (UNIVERSITAT DES SAARLANDES, priority 2007, published 2011)

Experiments:
[1] = biological target: T1, 17β-HSD1 (Homo sapiens, UniProt P14061); assay: Inhibition of 17β-HSD1 (estrone to estradiol, radio-HPLC); type: biochemical; conditions: for IC50: human placenta enzyme, 500 nM estrone, NADH 500 μM
T1 construct: In both cases, human placenta served as the enzyme source; from tissue; host or cells: human placenta
T1 sequence (P14061 1-328): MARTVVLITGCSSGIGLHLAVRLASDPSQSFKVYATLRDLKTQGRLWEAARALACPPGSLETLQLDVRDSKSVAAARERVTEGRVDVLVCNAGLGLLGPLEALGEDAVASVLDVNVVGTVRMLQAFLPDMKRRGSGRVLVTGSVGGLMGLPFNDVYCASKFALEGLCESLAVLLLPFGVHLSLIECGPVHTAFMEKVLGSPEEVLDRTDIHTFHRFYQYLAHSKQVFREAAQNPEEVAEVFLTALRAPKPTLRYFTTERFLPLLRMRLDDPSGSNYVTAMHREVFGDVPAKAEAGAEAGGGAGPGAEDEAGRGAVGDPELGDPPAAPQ
Procedure: In the 17β-HSD1 test, NADH is employed as a cosubstrate at a final concentration of 500 μM in order to avoid the product inhibition occurring with NADPH. The enzyme preparation is diluted with test buffer to such an extent that the control conversion is 10 to maximally 20% (about 1:650). As the substrate, estrone in a final concentration of 500 nM is used, of which 3 nM is tritiated. 2,4,6,7-[^3H]estrone is purchased from Perkin-Elmer, Boston. The inhibitor is added as a solution in DMSO (control: pure DMSO without inhibitor; the final concentration of DMSO in the assay is 1% in all cases).
(§1) After the reaction, the substrate and product are extracted by partitioning with ether, separated by chromatography (HPLC) and quantified by means of radiodetection.

[2] = biological target: T2, CYP2C19 (Homo sapiens, UniProt P33261); assay: Inhibition of hepatic CYP enzymes: CYP2C19; type: biochemical; conditions: read-out: CYP2C19 IC50 (mean ± SD)
T2 construct: purchased Becton Dickinson GmbH (Heidelberg)
Excerpt: (§2) Drug interactions (inhibition of hepatic CYP enzymes): The inhibition of six human hepatic cytochrome P450 enzymes by selected compounds was examined by means of the kit supplied by Becton Dickinson GmbH (Heidelberg).

[3] = biological target: T3, CYP2D6 (Homo sapiens, UniProt P10635); assay: Inhibition of hepatic CYP enzymes: CYP2D6; type: biochemical; conditions: read-out: CYP2D6 IC50 (mean ± SD)
T3 construct: purchased Becton Dickinson GmbH (Heidelberg)
Excerpt: as §2

[4] = biological target: T4, CYP1A2 (Homo sapiens, UniProt P05177); assay: Inhibition of hepatic CYP enzymes: CYP1A2; type: biochemical; conditions: read-out: CYP1A2 IC50 (mean ± SD)
T4 construct: purchased Becton Dickinson GmbH (Heidelberg)
T4 sequence (P05177 1-516): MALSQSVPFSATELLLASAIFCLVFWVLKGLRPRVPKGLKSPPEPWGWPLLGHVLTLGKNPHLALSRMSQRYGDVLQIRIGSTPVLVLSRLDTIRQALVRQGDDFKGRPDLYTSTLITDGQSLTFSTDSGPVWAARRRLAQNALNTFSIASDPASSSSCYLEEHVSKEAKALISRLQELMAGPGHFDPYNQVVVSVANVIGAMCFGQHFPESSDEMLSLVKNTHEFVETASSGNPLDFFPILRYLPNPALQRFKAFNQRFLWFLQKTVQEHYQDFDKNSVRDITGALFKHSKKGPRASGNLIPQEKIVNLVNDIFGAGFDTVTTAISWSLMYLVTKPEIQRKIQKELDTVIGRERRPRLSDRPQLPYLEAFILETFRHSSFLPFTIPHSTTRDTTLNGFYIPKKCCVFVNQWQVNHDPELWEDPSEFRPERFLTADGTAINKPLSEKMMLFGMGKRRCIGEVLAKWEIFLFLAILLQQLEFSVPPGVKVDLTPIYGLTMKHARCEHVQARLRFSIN
Excerpt: as §2

[5] = biological target: T5, CYP2B6 (Homo sapiens, UniProt P20813); assay: Inhibition of hepatic CYP enzymes: CYP2B6; type: biochemical; conditions: read-out: CYP2B6 IC50 (mean ± SD)
T5 construct: purchased Becton Dickinson GmbH (Heidelberg)
T5 sequence (P20813 1-491): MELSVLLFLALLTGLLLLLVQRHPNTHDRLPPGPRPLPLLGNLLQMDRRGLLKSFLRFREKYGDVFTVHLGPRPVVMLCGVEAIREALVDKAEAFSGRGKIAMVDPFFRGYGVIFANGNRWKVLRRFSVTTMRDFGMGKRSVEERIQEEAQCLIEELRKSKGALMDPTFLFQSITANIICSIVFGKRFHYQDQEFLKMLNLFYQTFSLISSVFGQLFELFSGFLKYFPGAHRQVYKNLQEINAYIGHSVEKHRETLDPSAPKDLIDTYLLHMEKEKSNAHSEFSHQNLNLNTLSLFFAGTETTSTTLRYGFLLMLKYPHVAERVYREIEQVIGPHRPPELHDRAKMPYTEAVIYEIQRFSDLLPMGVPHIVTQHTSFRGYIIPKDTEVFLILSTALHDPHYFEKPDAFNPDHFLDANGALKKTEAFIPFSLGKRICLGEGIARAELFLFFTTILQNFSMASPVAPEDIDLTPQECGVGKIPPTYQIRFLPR
Excerpt: as §2

[6] = biological target: T6, 17β-HSD2 (Homo sapiens, UniProt P37059); assay: Inhibition of 17β-HSD2 (estradiol to estrone, radio-HPLC); type: biochemical; conditions: human placenta microsome fraction, 500 nM estradiol, NAD+ 1500 μM
T6 construct: from tissue; host or cells: human placenta, microsome fraction
T6 sequence (P37059 1-387): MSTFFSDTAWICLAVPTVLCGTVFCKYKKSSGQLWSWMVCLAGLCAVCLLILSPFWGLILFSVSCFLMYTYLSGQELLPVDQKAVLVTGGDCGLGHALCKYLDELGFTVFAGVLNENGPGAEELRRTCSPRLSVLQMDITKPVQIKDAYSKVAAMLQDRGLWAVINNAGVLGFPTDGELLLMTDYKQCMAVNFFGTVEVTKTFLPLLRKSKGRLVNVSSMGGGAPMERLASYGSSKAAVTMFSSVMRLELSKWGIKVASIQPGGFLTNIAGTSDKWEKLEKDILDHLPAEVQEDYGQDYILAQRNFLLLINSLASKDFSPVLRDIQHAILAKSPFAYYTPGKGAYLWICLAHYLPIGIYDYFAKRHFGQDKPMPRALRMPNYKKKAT
Procedure: Determination of the inhibitory activity of the potential inhibitors: Inhibition of 17β-HSD1 and 17β-HSD2: In both cases, human placenta served as the enzyme source (Lin, S.-X. et al., J. Biol. Chem., 267: 16182-16187 (1992)).
In the 17β-HSD2 test, the natural cosubstrate NAD^+ is employed at a final concentration of 1500 μM. The microsome fraction is diluted in test buffer, so that a control conversion of 20 to 30% results (about 1:350). As the substrate, estradiol in a final concentration of 500 nM is used, of which 3 nM is tritiated. 2,4,6,7-[^3H]estradiol is also purchased from Perkin-Elmer, Boston. The inhibitor is added as a solution in DMSO (control: pure DMSO without inhibitor; the final concentration of DMSO in the assay is […]). After the addition of the substrate, incubation is performed at 37° C. for 20 minutes. The reaction is quenched by the addition of HgCl2 (final concentration of HgCl2: 0.166 mM).
as §1

[7] = biological target: T7, estrogen receptor α (Homo sapiens, UniProt P03372); assay: Affinity for the estrogen receptor α (RBA); type: binding; conditions: data not stated
T7 sequence (P03372 1-595): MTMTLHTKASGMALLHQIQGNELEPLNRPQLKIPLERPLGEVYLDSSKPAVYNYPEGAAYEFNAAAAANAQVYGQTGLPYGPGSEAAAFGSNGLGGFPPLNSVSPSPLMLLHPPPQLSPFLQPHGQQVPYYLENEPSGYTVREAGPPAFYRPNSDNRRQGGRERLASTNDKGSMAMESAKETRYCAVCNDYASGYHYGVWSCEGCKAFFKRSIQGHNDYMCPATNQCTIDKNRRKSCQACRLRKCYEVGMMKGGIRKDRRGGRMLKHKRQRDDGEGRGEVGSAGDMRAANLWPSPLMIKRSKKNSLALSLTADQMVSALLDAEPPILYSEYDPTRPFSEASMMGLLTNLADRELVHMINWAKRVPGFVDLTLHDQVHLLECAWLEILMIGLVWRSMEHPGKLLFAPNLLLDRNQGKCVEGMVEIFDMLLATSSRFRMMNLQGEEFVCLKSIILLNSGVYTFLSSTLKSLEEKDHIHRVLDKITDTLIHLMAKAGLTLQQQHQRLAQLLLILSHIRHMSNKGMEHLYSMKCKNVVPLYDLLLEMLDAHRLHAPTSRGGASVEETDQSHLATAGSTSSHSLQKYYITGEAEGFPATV
Procedure: Slight changes were made: The respective inhibitor was incubated at RT for 2 h with shaking.
The receptor affinities are established as RBA (relative binding affinity) values. The RBA value of the reference estradiol is set to 100%.

[8] = test system: estrogen receptor; conditions: cited from earlier work

T2 sequence (P33261 whole entry): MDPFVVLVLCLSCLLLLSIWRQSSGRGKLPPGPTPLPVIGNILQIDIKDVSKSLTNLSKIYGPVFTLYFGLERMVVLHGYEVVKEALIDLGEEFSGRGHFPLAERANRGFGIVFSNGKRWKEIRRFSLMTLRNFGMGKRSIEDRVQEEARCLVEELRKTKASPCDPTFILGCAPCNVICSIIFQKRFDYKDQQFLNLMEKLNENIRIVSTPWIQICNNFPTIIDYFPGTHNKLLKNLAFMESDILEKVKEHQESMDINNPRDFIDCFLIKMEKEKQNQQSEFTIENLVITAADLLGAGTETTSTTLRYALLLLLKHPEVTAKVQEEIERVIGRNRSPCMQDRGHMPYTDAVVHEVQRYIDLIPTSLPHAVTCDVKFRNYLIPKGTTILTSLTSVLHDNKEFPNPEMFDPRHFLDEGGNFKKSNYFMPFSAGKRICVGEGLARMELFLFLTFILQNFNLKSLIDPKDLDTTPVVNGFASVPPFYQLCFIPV
T3 sequence (P10635 whole entry): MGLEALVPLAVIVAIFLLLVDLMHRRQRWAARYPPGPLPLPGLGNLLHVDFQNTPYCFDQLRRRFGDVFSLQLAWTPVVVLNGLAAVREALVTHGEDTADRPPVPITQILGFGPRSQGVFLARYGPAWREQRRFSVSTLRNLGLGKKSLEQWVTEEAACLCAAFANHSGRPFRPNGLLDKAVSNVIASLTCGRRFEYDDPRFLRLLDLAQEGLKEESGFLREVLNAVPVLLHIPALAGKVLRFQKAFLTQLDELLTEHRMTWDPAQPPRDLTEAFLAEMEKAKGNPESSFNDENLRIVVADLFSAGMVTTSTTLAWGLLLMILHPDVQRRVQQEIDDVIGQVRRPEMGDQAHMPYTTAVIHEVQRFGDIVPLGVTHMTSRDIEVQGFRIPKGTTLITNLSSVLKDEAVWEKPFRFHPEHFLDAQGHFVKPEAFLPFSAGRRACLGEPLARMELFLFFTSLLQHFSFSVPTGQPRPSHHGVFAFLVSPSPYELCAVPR

| IC50 [1] [µM] | IC50 [2] [µM] | IC50 [3] [µM] | IC50 [4] [µM] | IC50 [5] [µM] | IC50 [6] [µM] | Selectivity IC50 (17β-HSD2)/IC50 (17β-HSD1) ([1]; ratio of IC50 values) | affinity for the estrogen receptor (in words) [7] | inhibition of 17β-HSD1 (in words) [1] | Inhibition of 17β-HSD1, IC50 (nM) ([1]; Table 6, isomeric bis(hydroxyphenyl)-1,3-thiazoles) | Compound | RBA (%) (Katzenellenbogen patent) [8] |
| --- | --- | --- | --- | --- | --- | --- | --- | --- | --- | --- | --- |
| 0.28 | 4.57 ± 0.05 | 7.76 ± 0.03 | 4.92 ± 0.09 | 14.2 ± 0.44 | 2.5 |  |  |  |  | Oc1cccc(-c2cnc(-c3cccc(O)c3)s2)c1 [Compound 22, 3,3′-(1,3-thiazole-2,5-diyl)diphenol] |  |
| 0.41 |  |  |  |  | 2.22 | 5.4 | negligible |  |  | Oc1cccc(-c2csc(-c3cccc(O)c3)n2)c1 [Compound 26, 3,3′-(1,3-Thiazole-2,4-diyl)diphenol] |  |
|  |  |  |  |  |  |  |  | no activity | no inhibition | Oc1ccc(-c2csc(-c3ccc(O)cc3)n2)cc1 [Compound 25, 4,4′-(1,3-Thiazole-2,4-diyl)diphenol] | 0.018 |
